Source: patent US20220160812A1, “A PHARMACEUTICALLY ACTIVE SUBSTANCE” (Cytopharma GmbH, priority 2019, published 2022)

System: BxPC-3 human pancreatic cancer cells
Assay: cell vitality FACS analysis (region R-1, FSC/SSC), BxPC-3 cells
Format: cell-based
Conditions: BxPC-3, Protocol A, about 24 hours, FIG. 8
Experimental: To transfer adherent cells (A375 and BxPC-3 cells) after culture, cells are washed twice with PBS. To detach the cells, the enzyme biotase is used according to the manufacturer's instructions. For this purpose, after washing with PBS, the cells are mixed with biotase (5 ml of biotase solution per 75 cm^2 surface of the cell culture bottles) and incubated for 5 min at 37 degrees Celsius, and the biotase is separated by centrifugation. Cells cultivated in suspension (MEC-1 and lymphocytes) were transferred by dilution. The cells are suspended in culture medium and counted, each time 1.5×10^5 cells/cm^2 are seeded in 48-well plates and cultured for between 1.5 and 24 hours at 37 degrees Celsius, 5% CO2. Peptides are pre-diluted from stock solution with culture medium and 200 μl of peptide solution added so that final concentrations of 30 to 500 μM peptide are present in at most 1% (v/v) DMSO. As control solutions, culture medium without peptide (DMSO-containing) in culture medium or etoposide solution is added. After incubating the cells for several hours, the cell supernatant is transferred to a FACS tube for each batch and, after washing the cells with PBS, the wash solution is added. Then the cells are incubated with 200 μl of biotase solution for 10 min, 37° C., the cells with the biotase are also transferred to the FACS tube and the cells are collected by centrifugation for 5 min. The cell pellet is suspended in 500 μl of serum-free culture medium, then 1.5 ml of cold 80% ethanol (ethanol/PBS-80/20, v/v, stored at −20° C.) is added, the FACS tubes sealed and stored at −20 degrees Celsius for 15 to 18 h. Thereafter, the cells are centrifuged for 5 minutes at 120 g, suspended after removal of the supernatant in 2 ml PBS and incubated at 37 degrees Celsius for 30 minutes. After re-centrifugation, the cells are suspended in 0.5 ml DAPI solution and incubated for 15 min at 20 degrees Celsius in the dark. Thereafter, the cells are stored dark for a maximum of four hours in an ice bath, followed by the FACS analysis. […]
For suspension cells (MEC-1 and lymphocytes/PBMC) and for adherent cells analyzed according to Protocol A, FACS analysis to determine subG1 cell cycle and vital cell fractions was done on a Becton Dickinson LSR Fortessa flow cytometer. The analysis by FACS including subG1 and vital cell analysis according to protocol B was performed with a Cytomics FC 500 MPL flow cytometer from Beckman Coulter.
Changes of the cell form during cell death by apoptosis are documented in the literature (Lizard et al. 1995; Taga et al. 2000; Vermes et al., 2000). The protocols for cell cultivation, treatment and preparation of the cells before flow cytometry is detailed in separate examples. Cell suspensions of cell lines A375, BxPC-3, MEC-1 or of primary lymphocytes (see separate example of lymphocyte preparation) are analyzed by flow cytometry. The data are further analyzed by using the program “Flowing Software 2”. The data of light scattering are drawn in a two-dimensional FSC/SSC plot. Since the position in the FSC/SSC plot of apoptotic cells changes relative to non-apoptotic cells (Vermes et al., 2000), a region (R-1) is drawn representing mainly non-apoptotic cells and excluding cells with both low FSC and low SSC values and excluding cells with high values of FSC and/or SSC (FIG. 1). The regions are individually selected for each cell type (A375, BxPC-3, MEC-1 and primary lymphocytes). The percentage of untreated non-apoptotic cells in the region R-1 relative to total cells is set to 100%, representing 100% vital cells. The fraction (%) of cells in R-1 relative to the total number of cells in case of cell treatment by certain peptides or by cytotoxic drugs results in cell vitality, below 100%, thereby indicating a loss of cell vitality by the treatment. […]

[1] = all concentrations (50, 100, 200 μM)

Substance | decrease of cell vitality, efficiency in words (100 μM) | decrease of cell vitality, efficiency in words (200 μM) | decrease of cell vitality, comparison in words [1] | decrease of cell vitality, comparison in words (50 μM) | efficiency (decrease of cell vitality) in view of Peptide SEQ C1 (50 μM) | efficiency (decrease of cell vitality) in view of Peptide SEQ C1 (100 and 200 μM)
k-s-q-t-v-k-k-w-m-v-v-y-f-r-k [SEQID No 29] | very high efficiency | astonishing high efficiency | significantly greater decrease than the control peptide (C1) | – | – | –
s-q-t-v-q-k-w-m-v-v-y-f-r-k [SEQID No 37] | – | astonishing high efficiency | significantly greater decrease than the control peptide (C1) | – | – | –
k-s-q-t-v-q-k-w-m-v-v-y-f-r-k [SEQID No 36] | very high efficiency | astonishing high efficiency | significantly greater decrease than the control peptide (C1) | clear improvement over peptides SEQID NO 27, SEQID NO 37 and SEQID NO 29 | at least fourfold | at least sevenfold
